Experimental data from publication PMC12361428 (Nature Communications, 2025).
Where a chain is given by its changes, count along the chain named. “And” between values parts separate entries of the source, which are not always exact repeats. Identical values can stand only once. “Also recorded” adds a separate entry of the source.

Assays:
[1] = molecular target: T1, A3AR Y265A^7.36 (Homo sapiens, UniProt P0DMS8, Y265A); experiment: Gαi1 activation, TruPath BRET assay in HEK293a cells; format: cell-based
T1 construct: expressed in transfected cells; host or cells: HEK293a
T1 sequence (P0DMS8 whole entry Y265A): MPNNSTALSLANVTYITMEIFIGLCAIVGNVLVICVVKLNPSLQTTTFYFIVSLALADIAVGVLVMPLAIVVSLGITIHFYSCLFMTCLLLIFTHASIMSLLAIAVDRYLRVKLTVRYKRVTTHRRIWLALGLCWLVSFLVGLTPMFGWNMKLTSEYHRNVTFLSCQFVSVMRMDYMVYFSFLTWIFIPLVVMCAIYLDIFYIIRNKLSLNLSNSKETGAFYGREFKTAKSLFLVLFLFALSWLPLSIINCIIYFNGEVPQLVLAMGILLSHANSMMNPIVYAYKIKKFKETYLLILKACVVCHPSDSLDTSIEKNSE
Method: PEI was added at a 6:1 PEI-to-DNA ratio.
Data were expressed as the mean ± standard error. All binding and Trupath data were analysed using the nonlinear regression curve-fitting programme with Prism 10 (GraphPad, San Diego, CA, USA). For nanoBRET saturation binding experiments, specific binding was calculated by subtracting non-specific binding (defined as binding in the presence of 10 µM MRS1220) from total binding. Specific binding data in each experiment were then normalised to the maximal binding (Bmax) of WT and fit to a one-site specific binding equation: Y =Bmax*[X]/(Kd + [X]). For nanoBRET competition binding experiments, data were normalised to total and non-specific binding responses and fit to a one-site—Fit Ki equation. Trupath's experimental data was baseline-corrected to the initial four baseline reads and then adjusted to the buffer control response. The area under the curve (AUC) for each response was calculated and plotted with a non-linear regression curve (log[agonist] vs response, three-parameter model), using the equation: Y = Bottom + (Top–Bottom)/(1 + 10^((LogEC50-X))). […] Significant differences vs WT were determined by one-way ANOVA with a Dunnett’s multiple comparison test. […]

[2] = molecular target: T2, A3AR N250A^6.55 (Homo sapiens, UniProt P0DMS8, N250A); experiment: as above; format: cell-based
T2 construct: expressed in transfected cells; host or cells: HEK293a
T2 sequence (P0DMS8 1-318 N250A): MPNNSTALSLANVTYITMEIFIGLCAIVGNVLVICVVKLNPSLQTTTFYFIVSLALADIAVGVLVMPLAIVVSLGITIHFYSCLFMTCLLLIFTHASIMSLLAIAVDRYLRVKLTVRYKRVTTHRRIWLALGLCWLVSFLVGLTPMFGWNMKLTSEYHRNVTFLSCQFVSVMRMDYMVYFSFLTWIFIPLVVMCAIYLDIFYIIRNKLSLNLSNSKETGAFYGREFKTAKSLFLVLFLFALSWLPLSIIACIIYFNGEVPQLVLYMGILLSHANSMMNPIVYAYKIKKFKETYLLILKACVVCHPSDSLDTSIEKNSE
Method: (§1) PEI was added at a 6:1 PEI-to-DNA ratio. Two days post-transfection, plates were washed twice with BRET buffer (HBSS with 10 mM HEPES, pH 7.4). After a 30-min incubation at 37 °C, plates were placed in a PHERAstar plate reader at 37 °C, and four baseline readings were taken using BRET2 filters at 410 ± 80 nm and 515 ± 30 nm. […] BRET2 ratios were calculated as the ratio of GFP2 emission (515 ± 30 nm) to RLuc8 emission (410 ± 80 nm).
(§2) Data were expressed as the mean ± standard error. All binding and Trupath data were analysed using the nonlinear regression curve-fitting programme with Prism 10 (GraphPad, San Diego, CA, USA). For nanoBRET saturation binding experiments, specific binding was calculated by subtracting non-specific binding (defined as binding in the presence of 10 µM MRS1220) from total binding. Specific binding data in each experiment were then normalised to the maximal binding (Bmax) of WT and fit to a one-site specific binding equation: Y =Bmax*[X]/(Kd + [X]). For nanoBRET competition binding experiments, data were normalised to total and non-specific binding responses and fit to a one-site—Fit Ki equation. Trupath's experimental data was baseline-corrected to the initial four baseline reads and then adjusted to the buffer control response. The area under the curve (AUC) for each response was calculated and plotted with a non-linear regression curve (log[agonist] vs response, three-parameter model), using the equation: Y = Bottom + (Top–Bottom)/(1 + 10^((LogEC50-X))). Here, X represents the log dose of the agonist, Y is the BRET2 AUC response, Top and Bottom are the curve plateaus, and EC50 is the agonist concentration yielding a response halfway between the Bottom and Top values. To determine efficacy values. The efficacy of the agonists (τA) was separately calculated using the Black–Leff operational model of agonism[79] using KA values from Table 2 and then corrected for receptor expression relative to WT using Bmax values from Table 1[80]. Significant differences vs WT were determined by one-way ANOVA with a Dunnett’s multiple comparison test. Significance levels are indicated as follows: P ≤ 0.0001****, P = 0.0001–0.001***, P = 0.001–0.01**, and P = 0.01–0.05*.

[3] = molecular target: T3, A3AR WT (Homo sapiens, UniProt P0DMS8); experiment: as above; format: cell-based
T3 construct: expressed in transfected cells; host or cells: HEK293a
T3 sequence (P0DMS8 1-318): T2 sequence (P0DMS8 1-318 N250A) with A250N
Method: as §1, §2

[4] = molecular target: A3AR H95A^3.37 (Homo sapiens, UniProt P0DMS8, H95A); experiment: as above
A3AR H95A^3.37, sequence (P0DMS8 whole entry H95A): as the sequence (P0DMS8 whole entry Y265A) above, with H95A, A265Y counted along it
Method: (§3) Two days post-transfection, plates were washed twice with BRET buffer (HBSS with 10 mM HEPES, pH 7.4). After a 30-min incubation at 37 °C, plates were placed in a PHERAstar plate reader at 37 °C, and four baseline readings were taken using BRET2 filters at 410 ± 80 nm and 515 ± 30 nm. […] BRET2 ratios were calculated as the ratio of GFP2 emission (515 ± 30 nm) to RLuc8 emission (410 ± 80 nm).
(§4) Data were expressed as the mean ± standard error. All binding and Trupath data were analysed using the nonlinear regression curve-fitting programme with Prism 10 (GraphPad, San Diego, CA, USA). […] Trupath's experimental data was baseline-corrected to the initial four baseline reads and then adjusted to the buffer control response. The area under the curve (AUC) for each response was calculated and plotted with a non-linear regression curve (log[agonist] vs response, three-parameter model), using the equation: Y = Bottom + (Top–Bottom)/(1 + 10^((LogEC50-X))). Here, X represents the log dose of the agonist, Y is the BRET2 AUC response, Top and Bottom are the curve plateaus, and EC50 is the agonist concentration yielding a response halfway between the Bottom and Top values. […] Significant differences vs WT were determined by one-way ANOVA with a Dunnett’s multiple comparison test.

[5] = molecular target: T4, A3AR Y15A^1.35 (Homo sapiens, UniProt P0DMS8, Y15A); experiment: as above; format: cell-based
T4 construct: expressed in transfected cells; host or cells: HEK293a
T4 sequence (P0DMS8 1-318 Y15A): T2 sequence (P0DMS8 1-318 N250A) with Y15A, A250N
Method: as §1, §2

[6] = molecular target: T5, A3AR V169E^45.53 (Homo sapiens, UniProt P0DMS8, V169E); experiment: as above; format: cell-based
T5 construct: expressed in transfected cells; host or cells: HEK293a
T5 sequence (P0DMS8 whole entry V169E): as the sequence (P0DMS8 whole entry Y265A) above, with V169E, A265Y counted along it
Method: as §3, §4

[7] = molecular target: A3AR S271A^7.42 (Homo sapiens, UniProt P0DMS8, S271A); experiment: as above
A3AR S271A^7.42, sequence (P0DMS8 whole entry S271A): as the sequence (P0DMS8 whole entry Y265A) above, with A265Y, S271A counted along it
Method: as §3, §4

[8] = molecular target: T6, A3AR S73A^2.65 (Homo sapiens, UniProt P0DMS8, S73A); experiment: as above; format: cell-based
T6 construct: expressed in transfected cells; host or cells: HEK293a
T6 sequence (P0DMS8 whole entry S73A): as the sequence (P0DMS8 whole entry Y265A) above, with S73A, A265Y counted along it
Method: as §3, §4

[9] = tested on: Nluc-tagged hA3AR-BRIL-S97R; experiment: NanoBRET washout (irreversible binding) assay vs XAC-630
[10] = molecular target: T7, A3AR-BRIL-S97R (Homo sapiens, UniProt P0DMS8, N160A/S97R, form not given); experiment: NanoBRET competition binding vs XAC-630; conditions: for XAC-630 NanoBRET binding, normalised (Figure S2H), individual replicates: A3AR-BRIL-S97R
T7 sequence (P0DMS8 1-318 S97R/N160A): T2 sequence (P0DMS8 1-318 N250A) with S97R, N160A, A250N

Nc1ncnc2c1ncn2[C@@H]1O[C@H](CO)[C@@H](O)[C@H]1O [Adenosine, adenosine]
log τ (efficacy, operational model, corrected for receptor expression) [1]: 1.4 ± 0.07
∆∆BRET Emax [1]: 1.25 ± 0.04
log τ (efficacy, operational model, corrected for receptor expression) [2]: N.R.
∆∆BRET Emax [2]: N.R
Gαi1 activation response (Figure 7F), individual replicates ([2]; log [agonist] -3): 0.1982 and 0.05834 and 0.1787
Gαi1 activation response (Figure 7F), individual replicates ([2]; log [agonist] -4): 0.07983 and 0.02674 and 0.09536
Gαi1 activation response (Figure 7F), individual replicates ([2]; log [agonist] -6): 0.1133 and 0.01975
Gαi1 activation response (Figure 7F), individual replicates ([2]; log [agonist] -7): 0.04263 and 0.06697 and 0.05413
Gαi1 activation response (Figure 7F), individual replicates ([2]; log [agonist] -8): 0.04211 and 0.09403 and 0.02948
Gαi1 activation response (Figure 7F), individual replicates ([2]; log [agonist] -9): 0.09604 and 0.06365 and 0.0751
log τ (efficacy, operational model, corrected for receptor expression) [3]: 1.6 ± 0.2
∆∆BRET Emax [3]: 0.89 ± 0.08
Gαi1 activation response (Figure 7F), individual replicates ([3]; log [agonist] -3): 1.106 and 0.8834 and 0.9675
Gαi1 activation response (Figure 7F), individual replicates ([3]; log [agonist] -4): 0.9524 and 0.7958 and 0.9068
Gαi1 activation response (Figure 7F), individual replicates ([3]; log [agonist] -5): 0.9676 and 0.6508 and 0.8035
Gαi1 activation response (Figure 7F), individual replicates ([3]; log [agonist] -6): 0.8382 and 0.5159 and 0.6976
Gαi1 activation response (Figure 7F), individual replicates ([3]; log [agonist] -7): 0.312 and 0.3966 and 0.3849
Gαi1 activation response (Figure 7F), individual replicates ([3]; log [agonist] -8): 0.0509 and 0.08839 and 0.07483
Gαi1 activation response (Figure 7F), individual replicates ([3]; log [agonist] -9): 0.1 and 0.05123 and 0.04435
log τ (efficacy, operational model, corrected for receptor expression) [4]: 0.3 ± 0.3
∆∆BRET Emax [4]: 0.63 ± 0.12
log τ (efficacy, operational model, corrected for receptor expression) [5]: 0.6 ± 0.3
∆∆BRET Emax [5]: 0.19 ± 0.02
Gαi1 activation response (Figure 7F), individual replicates ([5]; log [agonist] -3): 0.171 and 0.1858 and 0.1817
Gαi1 activation response (Figure 7F), individual replicates ([5]; log [agonist] -4): 0.1266 and 0.1086 and 0.09084
Gαi1 activation response (Figure 7F), individual replicates ([5]; log [agonist] -5): 0.08727 and 0.0349 and 0.02463
Gαi1 activation response (Figure 7F), individual replicates ([5]; log [agonist] -6): 0.02891 and 0.02444 and 0.02972
Gαi1 activation response (Figure 7F), individual replicates ([5]; log [agonist] -7): 0.01513 and 0.03836 and 0.02349
Gαi1 activation response (Figure 7F), individual replicates ([5]; log [agonist] -8): 0.0199 and 0.02219 and 0.02387
Gαi1 activation response (Figure 7F), individual replicates ([5]; log [agonist] -9): 0.02702 and 0.04406 and 0.02415
log τ (efficacy, operational model, corrected for receptor expression) [6]: 1.6 ± 0.1
∆∆BRET Emax [6]: 0.67 ± 0.02
∆∆BRET Emax [7]: 0.70 ± 0.15
log τ (efficacy, operational model, corrected for receptor expression) [8]: 1.4 ± 0.07
∆∆BRET Emax [8]: 1.49 ± 0.04

CCCn1c(=O)c2c(nc3cc(OC)ccn32)n(CCCCNC(=O)c2ccc(S(=O)(=O)F)cc2)c1=O [LUF7602]
inhibition of XAC-630 binding after 4x washout ([9]; 10 μM, 4 h, 4 washing steps): wash-resistant inhibition; also recorded: retained inhibition
rebinding of XAC-630 in the washout experiments ([9]; 10 μM, 4 h, 4 washing steps): ~ 15%
NanoBRET washout assay, normalised signal (Figure S2G), individual replicates ([9]; 4 x Wash): 12.3969 and 12.724 and 15.9645 and 7.178
NanoBRET washout assay, normalised signal (Figure S2G), individual replicates ([9]; Control (no wash)): 1.693 and 0.891 and -0.3357 and 2.202
pKi Mean (Figure S2H) ([10]; BRIL-S97R, n 3): 7.024
XAC-630 NanoBRET binding, normalised (Figure S2H), individual replicates ([10]; log LUF7602 -5): 0
XAC-630 NanoBRET binding, normalised (Figure S2H), individual replicates ([10]; log LUF7602 -6): 19.3899 and 25.983 and 15.2236
XAC-630 NanoBRET binding, normalised (Figure S2H), individual replicates ([10]; log LUF7602 -7): 80.7723 and 57.132 and 87.3086
XAC-630 NanoBRET binding, normalised (Figure S2H), individual replicates ([10]; log LUF7602 -8): 99.2468 and 73.5169 and 111.113
XAC-630 NanoBRET binding, normalised (Figure S2H), individual replicates ([10]; log LUF7602 -9): 98.8814 and 81.6512 and 110.04
XAC-630 NanoBRET binding, normalised (Figure S2H), individual replicates ([10]; log LUF7602 -10): 102.286 and 79.8771 and 109.058
